The text below walks through data of patent US20030129193A1 (priority 2001, published 2003).

In assay [1] the test system is tissue factor on HUVEC cells. The experiment in a line: FACS analysis of tissue factor expression. It counts as cell-based, human. Conditions: 6 h at 37°; TNFα 500 U/ml, LPS 10 μg/ml, VEGF 1 nM. On the procedure: To analyze tissue factor expression on the surface of endothelial cells, HUVEC cells were incubated with TNFα (500 U/ml), LPS (10 μg/ml) or vascular endothelial growth factor (VEGF, 1 nM) alone or in combination for 6 h at 37°. Cells were then detached and stained for surface expression of human tissue factor with a sheep-anti-human tissue factor antibody (Haemochrom, Essen, Germany) and an appropriate FITC-conjugated secondary antibody. Fluorescent cells were detected on a flow cytometer (Becton Dickinson. San Jose, Calif.).
A general note: A flow cytometer gives signals particle by particle.

Assay [2] has as its system VCAM-1. The experiment in a line: FACS for upregulation of VCAM-1. The class given is cell-based, mouse. As to the method:
(§1) Mouse endothelial cells were seeded in 48 well tissue culture plates and allowed to adhere overnight. Cells were stimulated with TNFα at the following concentrations: 500 U/ml; 100 U/ml; 20 U/ml; 4 U/ml; 0.8 U/ml; 0.16 U/ml; and with medium only.
Endothelial cells were then investigated for upregulation of the adhesion molecule VCAM-1 by fluorescence activated cell stain (FACS). To this end, cells were stained with an antibody against murine VCAM-1, followed by an appropriate FITC-conjugated secondary antibody. Fluorescent cells were detected on a flow cytometer (Becton Dickinson. San Jose, Calif.).

Assay [3] has as its system Mouse endothelial cells. The experiment in a line: Cell based two stage coagulation assay. On the procedure:
as §1
Endothelial cells were also tested for coagulant activity in a cell based two stage coagulation assay. After incubation with TNFα, cells were washed and incubated with coagulation factor mix (0.5 μg/ml factor VIIa in a mix containing 2.8 μg/ml factor IX, 3.4 μg/ml factor X, 50 μM phospholipids, in calcium buffer). The supernatant of wells was transferred into a 96 well ELISA plate. Substrate S2765 was added and Factor Xa generation measured.

Assay [4] relates to cancer patients having progressive disease. Conditions: human, in vivo; cited from earlier work.
Assay [5] relates to TNFα. Conditions: cited from earlier work.
Assay [6] deals with citrated mouse or human plasma. Kind of assay: In vitro coagulation assay on A20 cells. It counts as cell-based.
Assay [7] has as its system factor X. Kind of assay: Factor Xa production assay on A20 cells. Conditions: Factors II, VII and IX present. It counts as cell-based.
For assay [8], the system named is Factor X on IL-1α-stimulated bEnd.3 cells. Kind of assay: Chromogenic assay of coaguligand-induced Factor Xa formation. It counts as cell-based. Conditions: 10 μg per ml. As to the method:
The ability of Annexin V to affect Factor Xa formation induced by coaguligand was determined by a chromogenic assay. […] Annexin V was added at concentrations ranging from 0.1 to 10 μg/ml and cells were incubated for 30 min. before addition of diluted Proplex T. The amount of Factor Xa generated in the presence or absence of Annexin V was determined. Each treatment was performed in duplicate and repeated at least twice.

For assay [9], the system named is L540 Hodgkin tumors. Kind of assay: Annexin V inhibition of coaguligand-induced thrombosis in vivo. Set-up: species or system SCID mice. As to the method: The ability of Annexin V to inhibit coaguligand-induced thrombosis in vivo was examined in L540 Hodgkin-bearing SCID mice.
Four hours after the last injection mice were anesthetized and perfused with heparinized saline. Tumors were removed, fixed with 4% formalin, paraffin-embedded and stained with hematoxylene-eosin. The number of thrombosed and non-thrombosed blood vessels were counted and the percentage of thrombosis was calculated.

With VEGF, in [1], the “tissue factor expression on the surface of HUVEC” value is “upregulated tissue factor expression”.

As to TNFα, in [2], the “TNFα required for a measurable increase of VCAM-1 expression” value stood at 20 U/ml. Besides, the “dose lower than for VCAM-1 upregulation” value in [3] amounted to 125 fold. Besides, the “TNFα at which an increase versus negative control could be detected” value in assay [3] (Factor Xa generation) is listed as 0,16 U/ml. For the same molecule, in assay [1], the “tissue factor expression on the surface of HUVEC” value is reported as “upregulated tissue factor expression”.

`NC(=O)c1nnn(Cc2cc(Cl)c(C(=O)c3ccc(Cl)cc3)c(Cl)c2)c1N` [CAI, carboxyamidotriazole]: the “disease stabilization, patients” value in [4] was 49%.

For the molecule `Cc1ccc2c(=O)c3cccc(CC(=O)O)c3oc2c1C` [DMXAA], in assay [5], the “effectiveness in inducing TNFα, less than endotoxin” value is reported as 20 fold.

B1: IgG-H6—N′-cys-tTF219: one molecule of IgG linked via SMPT to one or two molecules of tTF (conjugate)
chain: HHHHHHAMALVPRGSCGTTNTVAAYNLTWKSTNFKTILEWEPKPVNQVYTVQISTKSGDWKSKCFYTTDTECDLTDEIVKDVKQTYLARVFSYPAGNVESTGSAGEPLYENSPEFTPYLETNLGQPTIQSFEQVGTKVNVTVEDERTLVRRNNTFLSLRDVFGKDLIYTLYYWKSSSSGKKTAKTNTNEFLIDVDKGENYCFSVQAVIPSRTVNRKSTDSPVECMGQEKGEFRE
modifications: left off: large carriers
For the molecule B1, the “reduction of coagulation-inducing activity relative to monomer / tTF219” value in assay [6] (less active) is 5 fold. The “concentration at which plasma coagulated in 50 seconds” value in assay [6] (localized on A20 cells via B21-2/10H10) came to 5 nM. The “Xa formation, less active than H6—N′-cys-tTF219” value in [7] is 2 fold.

B2: Annexin V: binds to PS with high affinity (protein, UniProt P08758 2-320, looked up)
Annexin A5: AQVLRGTVTDFPGFDERADAETLRKAMKGLGTDEESILTLLTSRSNAQRQEISAAFKTLFGRDLLDDLKSELTGKFEKLIVALMKPSRLYDAYELKHALKGAGTNEKVLTEIIASRTPEELRAIKQVYEEEYGSSLEDDVVGDTSGYYQRMLVVLLQANRDPDAGIDEAQVEQDAQALFQAGELKWGTDEEKFITIFGTRSVSHLRKVFDKYMTISGFQIEETIDRETSGNLEQLLLAVVKSIRSIPAYLAETLYYAMKGAGTDDHTLIRVMVSRSEIDLFNIRKEFRKNFATSLYSMIKGDTSGDYKKALLLLCGEDD
For B2, the “inhibition of factor Xa production” value in assay [8] came to 58%. Also, the “coaguligand-induced anti-tumor effects after pre-treatment” value in assay [9] (100 μg Annexin V, 2 hours before 40 μg anti-VCAM-1•tTF) was “completely abolished”. The tumor morphology entry in assay [9] (100 μg alone) is given as “did not alter tumor morphology”.
